Assay results taken from article PMC4435638, “Phase I trial of volasertib, a Polo-like kinase inhibitor, plus platinum agents in solid tumors: safety, pharmacokinetics and activity” (Investigational New Drugs, 2015).
Where two headings read alike, the source gives them in different places.

What was measured:
[1] = test system: in vitro and murine xenograft models; details: BI 2536 combined with cisplatin, cited from earlier work
[2] = test system: unrelated kinases (>50 other kinases); set-up: method as in PMID 19383823; details: at concentrations up to 10 μM; cited from earlier work
[3] = test system: patients with progressive advanced or metastatic solid tumors; set-up: method as in PMID 22119200; details: cited from earlier work
[4] = set-up: method as in PMID 19383823; details: preclinical studies, compared with BI 2536; cited from earlier work
[5] = test system: Plk; set-up: method as in PMID 19383823; details: cited from earlier work
[6] = Plasma pharmacokinetics of volasertib and CD 10899 (HPLC-MS/MS); type: in vivo, human; details: for clearance / Vd / half-life: human, intravenous; for clearance / Vd / half-life / AUC0-∞,norm, gMean / Cmax,norm, gMean: plasma; for clearance / Vd / half-life / AUC0-∞,norm, gMean: n = 28; for clearance: read-out: CL (total clearance), gMean; for Vd: read-out: Vss (apparent volume of distribution at steady state), gMean; for half-life: read-out: t1/2 (terminal half-life), gMean (converted)
Description: Blood was collected at specified time points during the first and second cycles of each treatment schedule for pharmacokinetic analyses to determine the plasma concentration of volasertib and/or total platinum. Plasma concentrations in cycle 1 were determined before the start of platinum infusions (–1 hour 35 minutes relative to the start of the volasertib infusion), shortly before the end of platinum infusion (–30 minutes), during volasertib infusion (1 hour), immediately before the end of volasertib infusion (2 hours), and at 3, 8, 24, 48, 168, and 336 hours after the start of volasertib infusion. The plasma concentrations in cycle 2 were determined before the start of platinum infusions (–1 hour 35 minutes), shortly before end of platinum infusion (–30 minutes), and immediately before the end of volasertib infusion (2 hours). Plasma concentrations of both volasertib and CD 10899, the predominant circulating hydroxylated metabolite of volasertib previously identified in early clinical studies of volasertib metabolism in cancer patients, were determined simultaneously by validated high performance liquid chromatography-tandem mass spectrometry (HPLC-MS/MS) assay using [D3]volasertib and [D3]CD 10899 as internal standards. The samples were subjected to solid-phase extraction in a 96-well plate format. Chromatography was achieved on an analytical reversed-phase HPLC column with gradient elution. The substances were detected and quantified by HPLC-MS/MS using electrospray ionization in the positive ion mode. Assay performance during the study was assessed by back-calculation of calibration standards, tabulation of the standard curve fit function parameters and measurement of quality control samples. […] Samples were diluted and acidified prior to analysis and were introduced into the ICP-MS system without further sample preparation. The ions were separated and detected in the mass spectrometer and the peak areas of platinum and lutetium were determined.

[7] = volasertib combined with carboplatin
[8] = volasertib combined with cisplatin

Structure (SMILES) | Efficacy compared with cisplatin alone ([1]; in vitro and murine xenograft models) | Combination effect versus either therapy alone ([1]; preclinical data) | Inhibition of unrelated kinases (>50 other kinases) [2] | MTD of single-agent volasertib ([3]; phase I study, monotherapy) [mg] | Recommended dose for further clinical investigation ([3]; single agent, based on overall tolerability) [mg] | Patients with confirmed partial response (PR) ([3]; single agent, urothelial cancer, ovarian cancer, or melanoma) | Terminal half-life (t1/2) [4] | Volume of distribution [4] | Concentrations at which Plk is targeted (mitotic arrest and apoptosis) [5] | Influence of cisplatin or carboplatin on the pharmacokinetics or metabolism of volasertib ([6]; co-administration) | clearance [6, 7] [mL/min] | Vd [6, 7] [L] | half-life [6, 7] [h] | clearance [6, 8] [mL/min] | Vd [6, 8] [L] | half-life [6, 8] [h] | AUC0-∞,norm, gMean ([6]; volasertib i.v. infusion combined with carboplatin) | Cmax,norm, gMean ([6]; volasertib i.v. infusion combined with carboplatin, n = 29) | AUC0-∞,norm, gMean ([6]; volasertib i.v. infusion combined with cisplatin) | Cmax,norm, gMean ([6]; volasertib i.v. infusion combined with cisplatin, n = 30)
CC[C@@H]1C(=O)N(C)c2cnc(Nc3ccc(C(=O)NC4CCN(C)CC4)cc3OC)nc2N1C1CCCC1 [BI 2536] | improved efficacy | may confer synergism | – | – | – | – | – | – | – | – | – | – | – | – | – | – | – | – | – | –
CC[C@@H]1C(=O)N(C)c2cnc(Nc3ccc(C(=O)N[C@H]4CC[C@H](N5CCN(CC6CC6)CC5)CC4)cc3OC)nc2N1C(C)C [Volasertib] | – | – | does not inhibit | 400 | 300 | three patients | long terminal half-life | high volume of distribution | low nanomolar concentrations | no influence | 865 | 7550 | 166 | 999 | 6780 | 137 | 19.3 [ng · h/mL]/mg | 1.40 [ng/mL]/mg | 16.7 [ng · h/mL]/mg | 1.29 [ng/mL]/mg
